Results from patent publication US10155948B2, “Pharmaceutical composition for preventing or treating diabetic complications and screening method for preventive or therapeutic agent for diabetic complications” (KANGWON NATIONAL UNIVERSITY UNIVERSITY-INDUSTRY COOPERATION …, priority 2016, dated 2018).

Columns and labels:
TGase2 = molecular target: T1, TGase2 (Mus musculus, UniProt P21981); assay: In-vivo TGase activity in retina of streptozotocin-diabetic mice; details: for increase of TGase activity in retinas of diabetic mice: intravitreal injection, 0.5 mM dopamine, 500 mM cysteamine; for hyperglycemia-induced TGase2 activation in diabetic retina (in-vivo TGase activity): diabetic mice, intravitreal 2 μl: 50 mM cystamine, 20 mM MDC, 1 μM C-peptide, 2 μM Trolox, 500 mM NAC, after 24 hrs, n=8
T1 construct: from tissue; host or cells: retina of streptozotocin-diabetic C57BL/6 mice
T1 sequence (P21981 1-686): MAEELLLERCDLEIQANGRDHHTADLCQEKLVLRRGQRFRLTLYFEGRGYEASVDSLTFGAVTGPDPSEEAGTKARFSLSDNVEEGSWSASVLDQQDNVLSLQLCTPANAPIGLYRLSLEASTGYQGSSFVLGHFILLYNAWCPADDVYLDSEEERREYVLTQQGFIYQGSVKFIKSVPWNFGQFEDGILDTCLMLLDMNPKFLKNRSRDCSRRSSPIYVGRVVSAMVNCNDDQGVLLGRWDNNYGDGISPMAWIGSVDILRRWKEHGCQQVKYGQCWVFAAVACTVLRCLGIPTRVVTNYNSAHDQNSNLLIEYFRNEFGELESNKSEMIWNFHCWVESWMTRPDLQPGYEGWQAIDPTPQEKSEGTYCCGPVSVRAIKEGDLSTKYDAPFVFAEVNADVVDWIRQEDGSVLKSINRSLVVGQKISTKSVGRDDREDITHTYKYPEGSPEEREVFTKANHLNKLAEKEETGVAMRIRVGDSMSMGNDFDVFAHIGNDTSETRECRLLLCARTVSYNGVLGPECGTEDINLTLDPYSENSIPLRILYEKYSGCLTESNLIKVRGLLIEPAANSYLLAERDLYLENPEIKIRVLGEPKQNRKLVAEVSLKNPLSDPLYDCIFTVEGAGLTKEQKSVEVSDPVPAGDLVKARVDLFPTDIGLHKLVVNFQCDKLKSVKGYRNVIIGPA
Protocol: Two weeks after streptozotocin injection, diabetic mice were intravitreally injected with 2 μl of TGase inhibitors (50 mM cystamine or 20 mM MDC), 1 μM C-peptide (American Peptide Company, Sunnyvale, Calif.), ROS scavengers (2 μM Trolox or 500 mM NAC), or 65 μM mouse TG2-specific siRNA (Dharmacon, Lafayette, Colo.) into one eye and an equal volume of PBS or mouse control siRNA (Dharmacon, Lafayette, Colo.) into the contralateral eye. Non-diabetic mice were also intravitreally injected with 2 μl of PBS or mouse control siRNA into the eyes. After 24 hrs for inhibitors or C-peptide or 48 hrs for mouse TGase2 siRNA, mice were subjected to measurement of in-vivo TGase activity and vascular leakage from the retina.
In vivo Tgase transamidating activity was determined in mouse retina using confocal microscopy (FIG. 5A). 24 hrs after intravitreal injection of TGase2 inhibitors and C-peptide or 48 h after the injection of mouse TGase2-specific siRNA, mice were deeply anaesthetized using 2.5% avertin and 48 μl of 100 mM BAPA was injected into the left ventricle. BAPA was allowed to circulate for 10 min and mice were sacrificed by cervical dislocation. Eyes were then enucleated and immediately fixed with 4% paraformaldehyde for 45 min. Retinas were dissected in the Maltese cross-configuration and permeabilized with 0.2% Triton X-100 in PBS for 30 min at RT. After incubation with the blocking solution for 30 min, retinas were treated with FITC-conjugated streptavidin (1:200, v/v) in the blocking solution for 1 hr at RT. The superficial vessels of stained retinas (n=8 per group) were observed using confocal microscopy and fluorescence intensities were analyzed using Fluoview software (FV-300). In-vivo TGase activities were quantitatively determined using fluorescence intensities in the retinas of normal and diabetic mice.
Six-week-old male C57BL/6 mice were obtained from KOATECH (Pyeongtaek, Korea). TGase2^−/− mice (C57BL/6) were prepared by disrupting exons 5 and 6 of TGase2 by homologous recombination, as previously described. Diabetic mice were generated by a single intraperitoneal injection of streptozotocin (150 mg/kg body weight, Sigma) freshly prepared in 100 mM citrate buffer (pH 4.5) as previously described. Mice with non-fasting blood glucose levels greater than 19 mM, polyuria and glucosuria were considered diabetic. Experiments were performed in strict accordance with the guidelines of the Institutional Animal Care and Use Ethics Committee of Kangwon National University.
To validate the in-vitro findings, the present inventors further investigated the role of TGase2 in hyperglycemia-induced vascular leakage in the retina of diabetic mice. For this study, the present inventors designed an in-vivo TGase activity assay using confocal microscopy in mouse retina (FIG. 5A). In this assay, BAPA, which is a TGase2 pseudo substrate, was systemically delivered into the blood circulatory system by injection into the left ventricles of mice, and biotinylated proteins in the retinas were probed with FITC-conjugated streptavidin.
(A) A schematic diagram for determining TGase2 activity in mouse retina. (B,C) Streptozotocin-induced diabetic mice were intravitreally injected with 2 μl cystamine (diabetic+Cys), MDC (diabetic+MDC), C-peptide (diabetic+C-pep), Trolox (diabetic+Trolox) or NAC (diabetic+NAC) into one eye and an equal volume of PBS into the contralateral eye (diabetic). Non-diabetic mice were also intravitreally injected with 2 μl PBS into both eyes (normal). TGase2 activities in retinas were visualized by confocal microscopy and quantitatively determined as described in Research Design and Methods (n=8 per group). (B) Representative TGase activity images in the retinas. […] Scale bar, […]. (C) In-vivo TGase activities were quantified by measuring the fluorescence intensity in retinas (***p<0.001). […]

TGase = molecular target: T2, TGase (Homo sapiens, UniProt P21980); assay: VEGF-induced TGase activation in HUVECs; assay type: cell-based
T2 construct: endogenous in cells; host or cells: HUVECs (isolated in house)
T2 sequence (P21980 1-687): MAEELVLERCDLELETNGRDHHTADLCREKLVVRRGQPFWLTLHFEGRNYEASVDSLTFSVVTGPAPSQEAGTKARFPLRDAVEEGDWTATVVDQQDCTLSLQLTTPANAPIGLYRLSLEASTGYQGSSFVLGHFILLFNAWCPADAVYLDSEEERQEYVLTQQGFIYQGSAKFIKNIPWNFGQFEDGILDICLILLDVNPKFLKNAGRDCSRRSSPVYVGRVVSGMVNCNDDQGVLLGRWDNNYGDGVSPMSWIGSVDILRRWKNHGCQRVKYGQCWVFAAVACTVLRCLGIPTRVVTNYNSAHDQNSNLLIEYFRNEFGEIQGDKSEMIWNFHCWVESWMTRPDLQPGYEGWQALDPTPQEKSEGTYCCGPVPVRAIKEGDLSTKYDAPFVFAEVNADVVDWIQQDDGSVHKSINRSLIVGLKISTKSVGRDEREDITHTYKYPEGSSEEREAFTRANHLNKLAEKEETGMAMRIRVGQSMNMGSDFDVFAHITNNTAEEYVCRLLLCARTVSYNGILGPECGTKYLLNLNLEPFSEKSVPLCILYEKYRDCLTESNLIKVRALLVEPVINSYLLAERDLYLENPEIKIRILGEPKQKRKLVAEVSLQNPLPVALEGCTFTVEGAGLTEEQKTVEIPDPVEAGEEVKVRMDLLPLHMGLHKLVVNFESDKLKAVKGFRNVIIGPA
Protocol: Both respectively were grown on 2% gelatin-coated plates in a M199 medium supplemented with 20% fetal bovine serum (FBS), 3 ng/ml basic fibroblastic growth factor, 5 units/ml heparin, 100 units/ml penicillin, and 100 μg/ml streptomycin. For experiments, cells were incubated for 6 hrs in a low-serum medium supplemented with 1% FBS and antibiotics.
In-situ Tgase transamidating activity was determined via confocal microscopic assay according to a previously known procedure. In brief, cells were incubated with 1 mM 5-(biotinamido)pentylamine (BAPA) for 1 hr at 37° C., fixed with 3.7% formaldehyde in PBS for 30 min, and permeabilized with 0.2% Triton X-100 in PBS for 30 min. After incubation with a blocking solution of 2% BSA in 20 mM Tris (pH 7.6), 138 mM NaCl, and 0.1% Tween 20 for 30 min, cells were treated with Cy3-conjugated streptavidin (1:200, v/v) in the blocking solution for 1 hr. Single-cell fluorescence intensities of stained cells were determined using confocal microscopy for 10 randomly selected cells per test. TGase activities were determined by comparing average fluorescence intensities of treated cells with those of control cells (expressed as multiples thereof).

Row | Structure (SMILES) | increase of TGase activity in retinas of diabetic mice (TGase2) | VEGF-enhanced TGase activation (TGase) | hyperglycemia-induced TGase2 activation in diabetic retina (in-vivo TGase activity) (TGase2)
1 | NCCS [cysteamine] | inhibited | inhibited | –
2 | NCCc1ccc(O)c(O)c1 [dopamine] | inhibited | inhibited | –
3 | Cc1c(C)c2c(c(C)c1O)CCC(C)(C(=O)O)O2 (stereo not shown) [Trolox] | – | – | prevented
4 | CN(C)c1cccc2c(S(=O)(=O)NCCCCCN)cccc12 [MDC, monodansylcadaverine] | – | – | suppressed
5 | NCCSSCCN [cystamine] | – | – | suppressed
